How the values were obtained:
M200 filaments = conditions: cited from earlier work
Text: Over the last two decades, there has been much interest in the role of the S100 Ca^2^+-binding protein family in the regulation of cellular events.[1,2] Identifying the specific targets of each of the 24 members[3] and deducing their mechanisms of action in vitro and in vivo remain to be a challenge. This is exemplified by S100A4 (also known as Mts1, metastasin, p9Ka, pEL98, calvasculin, and Fsp-1), which has been implicated in a wide range of cellular events and numerous diseases and binds to several different targets in vitro.[4–6] In particular, following early work,[7–9] there have been ma ... || A corresponding stoichiometry is also seen in the interaction of S100A4 with M200, where 2 mol of S100A4 monomer was required to solubilise 1 mol of M200 aggregate (when expressed as M200 polypeptide chain concentration) (Fig. 9b). […] These stoichiometries complicate the calculation of the equilibrium parameters for the models described in Schemes 1 and 2. If the binding sites remaine ...

[1] = Stopped-flow tyrosine fluorescence, Ca^2+ dissociation from S100A4 constructs; assay type: binding
Procedure: Stopped-flow measurements were carried out using an SX18-MV apparatus (Applied Photophysics Ltd., Leatherhead, UK) with a dead time of 1.5 ms.[40] Records were generally captured on a logarithmic time base. Absorption (turbidity) measurements were usually recorded using a 10-mm pathlength, while fluorescence was recorded with a 2-mm pathlength for excitation and emission. The stated concentrations of components refer to the reaction chamber after mixing, unless otherwise indicated. Tyrosine fluorescence was excited at 280 nm, and the emission was collected through a UG11 bandpass filter plus a 305-nm longpass filter.[18] Fluorescein fluorescence was excited at 480 nm, and the emission was detected through a 515-nm longpass filter. Quin-2 fluorescence was measured by excitation at 336 nm, and emission was collected with a 455-nm longpass filter. For simultaneous recording of light scatter, a second channel was monitored through a UG11 filter. Rate constants were obtained by fitting to single-exponential or double-exponential functions using Kaleidagraph (Synergy Software) or Applied Photophysics Pro-Data software. Modeling of kinetic schemes was performed using Berkeley Madonna software.
Dissociation of Ca2+ from wild type S100A4 (black), Y19F mutant (blue) and Y75F mutant (red) monitored by tyrosine fluorescence. 13 M of each S100A4 construct plus 100 µM Ca2+ was mixed with 200 µM EGTA (reaction chamber concentrations) and the tyrosine fluorescence monitored. The buffer was 20 mM NaCl, 10 mM HEPES, 2 mM DTT at pH 7.5 and 20 °C. Fits to a single exponential function yielded rate constants of 20 s-1, 113 s-1 and 45 s-1 for wild-type, Y19F mutant and Y75F mutant respectively. (d) Dissociation of Ca2+ from wild type S100A4 (black), E33Q mutant (blue) and D63N mutant (red) monitored by tyrosine fluorescence. 13 M of each S100A4 construct plus 15 M Ca2+ was mixed with 200 M EGTA (reaction chamber concentrations) and the tyrosine fluorescence monitored. Fits to a single exponential function yielded rate constants of 22 s-1 and 49 s-1 for wild-type and E33Q construct respectively, while that […]
The records for the mutants were vertically offset for clarity in both […]

NM-MHC IIA rods = conditions: 20 mM NaCl; cited from earlier work
Text: Over the last two decades, there has been much interest in the role of the S100 Ca^2^+-binding protein family in the regulation of cellular events.[1,2] Identifying the specific targets of each of the 24 members[3] and deducing their mechanisms of action in vitro and in vivo remain to be a challenge. This is exemplified by S100A4 (also known as Mts1, metastasin, p9Ka, pEL98, calvasculin, and Fsp-1), which has been implicated in a wide range of cellular events and numerous diseases and binds to several different targets in vitro.[4–6] In particular, following early work,[7–9] there have been ma ...

M200 filamentous bundles = experiment: Electron microscopy of myosin IIA tail fragments; parameters: species or system human; conditions: two times stoichiometric S100A4, Ca^2+, 0.1 M Na-acetate
Procedure: Fig. 8 Characterisation of myosin IIA coiled-coil tail fragments. Metal-shadowed electron micrographs of (a) M200 and (b) M111 deposited from 0.5 M ammonium acetate. Scale bar represents 50 nm. (c and d) Electron micrographs of a negatively stained M200 tail fragment. Fields of M200 (c) in the absence and (d) in the presence of a 2-fold molar excess of S100A4, respectively. Arrows point to individual strands emerging from images of filamentous bundles. The samples were prepared in 0.1 M sodium acetate buffer, where M200 formed large filamentous aggregates but were solubilised in the presence of S100A4. Scale bar represents 200 nm (see Materials and Methods for details).
For negative staining, the stock solution of the M200 tail fragment was diluted with a solution consisting of 0.1 M Na-acetate, 3 mM MgCl2, 0.1 mM CaCl2, 10 mM imidazole, and 5 mM NaH2PO4 (pH 7.0), with or without 14 μM S100A4, to give a final concentration of 7 μM M200. Following dilution, 5 μl of the mixture was applied to a grid with a thin carbon film supported by a holey carbon film, and the grid was negatively stained using 1% uranyl acetate. […] Images were recorded on a 2000 × 2000 F224HD slow-scan CCD camera (TVIPS, Gauting, Germany) at a magnification of 65,000× (0.37 nm pixel^− 1). The lengths of nonoverlapping well-shadowed molecules were measured as described by Burgess et al.[47]

Substance: S100A4: recombinant S100A4 expressed in E. coli BL21(DE3)
- dissociation of rod filaments (M200 filaments; 20 mM NaCl): ineffective at dissociating rod filaments
- S100A4 dimer required to disassemble 1 mol of NM-MHC IIA rods (M200 filaments; ref 11 (Li et al.)): 1 mol of S100A4 dimer
- Ca^2+ dissociation rate constant (tyrosine) ([1]; 13 μM S100A4 + 15 μM Ca^2+ mixed with 200 μM EGTA): 22 s^− 1
- Ca^2+ dissociation rate constant (tyrosine) ([1]; 13 μM S100A4 + 100 μM Ca^2+ mixed with 200 μM EGTA, 20 mM NaCl, 10 mM Hepes, 2 mM DTT, pH 7.5, 20 °C): 20 s^− 1
- binding to rods (NM-MHC IIA rods): micromolar affinity
- M200 filamentous bundles after S100A4 addition (M200 filamentous bundles): no trace of filamentous bundles was observed
